In patent US7300946B2, “N-(substituted arylmethyl)-4-(disubstituted methyl) piperidines and pyridines” (Bayer CropScience AG, priority 2002, dated 2007):

System: tobacco budworm (Heliothis virescens [Fabricius])
Assay: surface-treated diet test against the tobacco budworm
Assay type: in vivo
Details: tobacco budworm second instar larvae, 0.25 millimoles of candidate insecticide on the surface of the diet, five-day exposure; for Percent Mortality: compared to total number of insects infested; for Percent Growth Inhibition: inhibition of insect weight relative to untreated controls
How it was run: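 Wheat germ artificial diet surface-treated with 40 µL of 50 mM DMSO stock diluted 1:7 in 1:1 water/acetone (0.25 millimolar on diet), or sub-multiples for rate tests. One second-instar larva per well, 25° C, 60% RH, 5 days; percent weight inhibition vs DMSO controls and percent mortality.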

SMILES | Percent Mortality (surface-treated diet) | Percent Growth Inhibition (surface-treated diet) | Percent Mortality | Percent Growth Inhibition
O=C(NCc1ccccc1Cl)OC(c1ccc(C(F)(F)F)cc1)C1CCN(Cc2ccc(Oc3ccccn3)cc2)CC1 (stereo not shown) [Compound 663] | 50% | 100% | – | –
FC(F)(F)c1ccc(C(OC(=S)Nc2ccc(Cl)cc2)C2CCN(Cc3ccc(Oc4ccccn4)cc3)CC2)cc1 (stereo not shown) [Compound 667] | 100% | 100% | – | –
CNC(=O)Oc1ccc(CN2CCC(C(OC(=O)Nc3ccccc3)c3ccc(C(F)(F)F)cc3)CC2)cc1 (stereo not shown) [Compound 521] | 100% | 100% | – | –
CCn1nnc(-c2ccc(CN3CCC(C(OC(=O)Nc4cccc(C(F)(F)F)c4)c4ccc(C)cc4)CC3)cc2)n1 (stereo not shown) [Compound 599] | 100% | 100% | – | –
CCON=Cc1ccc(CN2CCC(C(OC(=O)N(C)C)c3ccc(C(F)(F)F)cc3)CC2)cc1 (stereo not shown) [Compound 773] | – | – | 100% | 100%
O=C(Nc1cc(F)cc(F)c1)OC(c1ccc(C(F)(F)F)cc1)C1CC[N+]([O-])(Cc2ccc(Oc3ccccn3)cc2)CC1 (stereo not shown) [Compound 397] | 100% | 100% | – | –
O=C(Nc1ccc(Br)cc1)OC(c1ccc(C(F)(F)F)cc1)C1CCN(Cc2ccc(Oc3ccccn3)cc2)CC1 (stereo not shown) [Compound 673] | 100% | 100% | – | –
O=C(Nc1cc(F)cc(F)c1)OC(c1ccc(C(F)(F)F)cc1)C1CCN(Cc2ccc(-n3cncn3)cc2)CC1 (stereo not shown) [Compound 558] | 17% | 99% | – | –
N#Cc1cccnc1Oc1ccc(CN2CCC(C(OC(=O)Nc3cc(F)cc(F)c3)c3ccc(OC(F)(F)F)cc3)CC2)cc1 (stereo not shown) [Compound 710] | – | – | 100% | 100%
CCCOc1ccc(CN2CCC(C(OC(=O)Nc3ccc(Cl)cc3)c3ccc(Cl)c(Cl)c3)CC2)cc1 (stereo not shown) [Compound 480] | 100% | 100% | – | –
FC(F)(F)c1ccc(C(Oc2cncc(Cl)c2)C2CCN(Cc3ccc(Oc4ccccn4)cc3)CC2)cc1 (stereo not shown) [Compound 443] | 33% | 100% | – | –
Cn1nnc(-c2ccc(CN3CCC(=C(c4ccc(C(F)(F)F)cc4)c4ccc(C(F)(F)F)cc4)CC3)cc2)n1 [Compound 75] | 100% | 96% | – | –
CON=Cc1ccc(CN2CCC(C(OC(=O)Nc3ccc(F)c(F)c3)c3ccc(OC(F)(F)F)cc3)CC2)cc1 (stereo not shown) [Compound 194] | 100% | 100% | – | –
CCON=Cc1ccc(CN2CCC(C(Oc3ccc(C(F)(F)F)cc3)c3ccc(C(F)(F)F)cc3)CC2)cc1 (stereo not shown) [Compound 454] | 100% | 100% | – | –
CC(C)OC(=O)OC(c1ccc(C(F)(F)F)cc1)C1CCN(Cc2ccc(Oc3ccccn3)cc2)CC1 (stereo not shown) [Compound 770] | – | – | 0% | 76%
N#Cc1ccc(Oc2ccc(CN3CCC(C(OC(=O)Nc4ccc(Cl)cc4)c4ccc(C(F)(F)F)cc4)CC3)cc2)nc1 (stereo not shown) [Compound 671] | 100% | 100% | – | –

SMILES | Percent Mortality (surface-treated diet) | Percent Growth Inhibition (surface-treated diet) | Percent Mortality | Percent Growth Inhibition
Cn1nnc(-c2ccc(CN3CCC(C(NC(=O)Oc4ccc(Br)cc4)c4ccc(OC(F)(F)F)cc4)CC3)cc2)n1 (stereo not shown) [Compound 350] | 100% | 100% | – | –
Cn1nnc(-c2ccc(C[N+]3([O-])CCC(C(OC(=O)Nc4ccc(Cl)cc4)c4ccc(OC(F)(F)F)cc4)CC3)cc2)n1 (stereo not shown) [Compound 399] | 100% | 100% | – | –
O=C(Nc1cc(F)cc(F)c1)OC(c1ccc(C(F)(F)F)cc1)C1CCN(Cc2ccc(O)cc2)CC1 (stereo not shown) [Compound 464] | 0% | 63% | – | –
CCn1nnc(-c2ccc(CN3CCC(C(OC(=O)Nc4ccc(C(F)(F)F)cc4)c4ccccc4Cl)CC3)cc2)n1 (stereo not shown) [Compound 571] | 100% | 100% | – | –
CNC(=O)Oc1ccc(CN2CCC(=C(c3ccc(C(F)(F)F)cc3)c3ccc(C(F)(F)F)cc3)CC2)cc1 [Compound 790] | – | – | 100% | 100%
CCn1nnc(-c2ccc(CN3CCC(C(OC(=O)Nc4cc(F)cc(F)c4)c4ccccc4Cl)CC3)cc2)n1 (stereo not shown) [Compound 570] | 100% | 100% | – | –
Cn1nnc(-c2ccc(CN3CCC(C(NC(=O)Oc4ccc([N+](=O)[O-])cc4)c4ccc(OC(F)(F)F)cc4)CC3)cc2)n1 (stereo not shown) [Compound 358] | 83% | 99% | – | –
Cn1nnc(-c2ccc(C[N+]3([O-])CCC(C(OC(=O)Nc4ccc(F)cc4)c4ccc(OC(F)(F)F)cc4)CC3)cc2)n1 (stereo not shown) [Compound 400] | 100% | 100% | – | –
O=C(Nc1cccc(Cl)c1)OC(c1ccc(C(F)(F)F)cc1)C1CCN(Cc2ccc(Oc3ccccn3)cc2)CC1 (stereo not shown) [Compound 664] | 100% | 100% | – | –
Cn1nnc(-c2ccc(CN3CCC(C(NC(=O)c4ccc(OC(F)(F)F)cc4)c4ccc(OC(F)(F)F)cc4)CC3)cc2)n1 (stereo not shown) [Compound 332] | 100% | 100% | – | –
Cn1nnc(-c2ccc(CN3CCC(C(NC(=O)Nc4cccc(F)c4)c4ccc(OC(F)(F)F)cc4)CC3)cc2)n1 (stereo not shown) [Compound 339] | 50% | 100% | – | –
O=C(NCc1ccc(F)cc1)OC(c1ccc(C(F)(F)F)cc1)C1CCN(Cc2ccc(Oc3ccccn3)cc2)CC1 (stereo not shown) [Compound 676] | 100% | 100% | – | –
O=C(Nc1cc(F)cc(F)c1)OC(c1ccc(C(F)(F)F)cc1)C1CCN(Cc2ccc(Oc3ccc(Cl)nn3)cc2)CC1 (stereo not shown) [Compound 738] | – | – | 100% | 100%
Cn1nnc(-c2ccc(CN3CCC(C(NCc4ccc(Cl)cc4)c4ccc(OC(F)(F)F)cc4)CC3)cc2)n1 (stereo not shown) [Compound 311] | 100% | 100% | – | –
O=C(Nc1ccc(Cl)cc1)OC(c1ccc(C(F)(F)F)cc1)C1CCN(Cc2ccc(Oc3ccccn3)cc2)CC1 (stereo not shown) [Compound 227, N-(4-chlorophenyl)({1-[(4-(2-pyridyloxy)phenyl)methyl](4-piperidyl)}[4-(trifluoromethyl)phenyl]methoxy)carboxamide] | 100% | 100% | – | –
[O-][N+]1(Cc2ccc(Oc3ncccn3)cc2)CCC(=C(c2ccc(C(F)(F)F)cc2)c2ccc(Cl)c(Cl)c2)CC1 (stereo not shown) [Compound 850] | – | – | 100% | 100%
